Measurements taken from patent US8124629B2, “Naphthylacetic acids” (Hoffmann-La Roche Inc., priority 2008, dated 2012).

Target: T1, human CRTH2 (Homo sapiens, UniProt Q9Y5Y4)
T1 sequence (Q9Y5Y4 1-395): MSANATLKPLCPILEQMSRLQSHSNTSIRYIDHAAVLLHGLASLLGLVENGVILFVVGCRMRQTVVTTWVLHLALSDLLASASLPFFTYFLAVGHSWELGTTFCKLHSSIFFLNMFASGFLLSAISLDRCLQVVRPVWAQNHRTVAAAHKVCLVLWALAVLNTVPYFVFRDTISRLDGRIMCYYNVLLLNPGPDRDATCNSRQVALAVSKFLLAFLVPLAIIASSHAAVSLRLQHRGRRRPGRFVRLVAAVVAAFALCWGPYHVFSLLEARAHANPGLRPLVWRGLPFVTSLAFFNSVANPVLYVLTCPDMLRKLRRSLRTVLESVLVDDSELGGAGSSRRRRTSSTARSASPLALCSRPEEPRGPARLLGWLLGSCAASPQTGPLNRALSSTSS
Assay: Human CRTH2 Receptor Binding Assay (whole cell, [3H]ramatroban)
Set-up: expressed in transfected cells; host or cells: CHO-K1
Conditions: CHO-K1 cells expressing human CRTH2 and G-alpha16; 20 nM [3H]ramatroban; 1 hour, room temperature
Description: A whole cell receptor binding assay using [^3H]ramatroban as the competing radioactive ligand was employed to evaluate the compound binding activity to human CRTH2. The radioactive ligand [^3H]ramatroban was synthesized according to Sugimoto et. al. (Eur. J. Pharmacol. 524, 30-37, 2005) to a specific activity of 42 Ci/mmol.
A cell line stably expressing human CRTH2 was established by transfecting CHO-K1 cells with two mammalian expression vectors that harbored human CRTH2 and G-alpha16 cDNAs, respectively, using FuGene® 6 transfection reagent (from Roche). Stable clones expressing CRTH2 were selected by staining each clone with BM16 (BD Pharmingen™ from BD Biosciences, a division of Becton, Dickinson and Company), which is a rat monoclonal antibody to human CRTH2. The cells were maintained as monolayer cultures in Ham's F-12 medium containing 10% fetal bovine serum, 100 units/mL penicillin, 100 μg/mL streptomycin, 2 mM glutamine, 0.5 mg/mL G418 (geneticin) for CRTH2, and 0.2 mg/mL hygromycin-B (for G-alpha 16). For whole cell receptor binding assay, the monolayer cells were rinsed once with PBS (phosphate buffered saline), dissociated using ethylenediaminetetraacetate (Versene™ EDTA from Lonza Inc.), and suspended in PBS containing 10 mM MgCl2 and 0.06% BSA (bovine serum albumin) at 1.5×10^6 cells/mL.
The binding reactions (0.2 mL) were performed in 96-well plates at room temperature in PBS containing 1.5×10^5 cells, 10 mM MgCl2, 0.06% BSA, 20 nM [^3H]ramatroban, and test compound at various concentrations. After 1 hour of binding reactions, the cells were harvested on GF™/B filter microplates (microtiter plates with embedded glass fiber from Perkin Elmer, Inc.) and washed 5 times with PBS using a Filtermate™ Harvester (a cell harvester that harvests and washes cells from microplates from PerkinElmer, Inc.). The radioactivities bound to the cells were determined using a microplate scintillation counter (TopCount® NXT, from PerkinElmer, Inc.) after adding 50 μL of Microscint™ 20 scintillation fluid (from PerkinElmer, Inc.) to each well of the filter plates. The radioactivity from non-specific binding was determined by replacing compound with 10 μM of 15(R)-15-methyl PGD2 (from Cayman Chemical Company) in the reaction mixtures. The radioactivity bound to the cells in the absence of compound (total binding) was determined by replacing compound with 0.25% of DMSO (dimethyl sulfoxide) in the reaction mixture. Specific binding data were obtained by subtracting the radioactivity of non-specific binding from each binding data.
The IC50 value is defined as the concentration of the tested compound that is required for 50% inhibition of total specific binding. In order to calculate the IC50 value, the percent inhibition data were determined for 7 concentrations for each compound. The percent inhibition for a compound at each concentration was calculated according to the following formula, [1-(specific binding in the presence of compound)/(total specific binding)]×100. The IC50 value was then obtained by fitting the percent inhibition data to a sigmoidal dose-response (4 parameter logistic) model in the XLfit® software Excel add-in program [from ID Business Solutions Ltd., model 205, where F(x)=(A+(B−A)/(1+((C/×)^D)))].

IC50	SMILES
17.8 nM	CN(C)S(=O)(=O)c1ccc(C(=O)c2cc(CC(=O)O)cc3ccccc23)cc1 [Example 1-1, [4-(4-Dimethylsulfamoyl-benzoyl)-naphthalen-2-yl]-acetic acid]
11.2 nM	CCS(=O)(=O)c1ccc(C(=O)c2cc(CC(=O)O)cc3ccc(F)cc23)c(Cl)c1 [Example 1-4, [4-(2-Chloro-4-ethanesulfonyl-benzoyl)-6-fluoro-naphthalen-2-yl]-acetic acid]
6.2 nM	O=C(O)Cc1cc(C(=O)c2ccc(S(=O)(=O)c3cccc(Cl)c3)cc2)c2cc(F)ccc2c1 [Example 1-5, {4-[4-(3-Chloro-benzenesulfonyl)-benzoyl]-6-fluoro-naphthalen-2-yl}-acetic acid]
4.3 nM	CS(=O)(=O)c1ccc(C(=O)c2cc(CC(=O)O)cc3ccc(F)cc23)cc1 [Example 2-1, [6-Fluoro-4-(4-methanesulfonyl-benzoyl)-naphthalen-2-yl]-acetic acid]
26.4 nM	COc1ccc2cc(CC(=O)O)cc(C(=O)c3ccc(S(C)(=O)=O)cc3)c2c1 [Example 2-2, [4-(4-Methanesulfonyl-benzoyl)-6-methoxy-naphthalen-2-yl]-acetic acid]
17 nM	CS(=O)(=O)c1ccc(C(=O)c2cc(CC(=O)O)cc3ccccc23)cc1 [Example 2-3, [4-(4-Methanesulfonyl-benzoyl)-naphthalen-2-yl]-acetic acid]
40.6 nM	CS(=O)(=O)c1ccc(C(=O)c2cc(CC(=O)O)cc3cc(F)ccc23)cc1 [Example 2-4, [7-Fluoro-4-(4-methanesulfonyl-benzoyl)-naphthalen-2-yl]-acetic acid]
15.1 nM	Cc1cc(S(C)(=O)=O)ccc1C(=O)c1cc(CC(=O)O)cc2ccc(F)cc12 [Example 2-5, [6-Fluoro-4-(4-methanesulfonyl-2-methyl-benzoyl)-naphthalen-2-yl]-acetic acid]
15.5 nM	CS(=O)(=O)c1ccc(C(=O)c2cc(CC(=O)O)cc3cc(F)c(F)cc23)cc1 [Example 2-6, [6,7-Difluoro-4-(4-methanesulfonyl-benzoyl)-naphthalen-2-yl]-acetic acid]
8.5 nM	CS(=O)(=O)c1ccc(C(=O)c2cc(CC(=O)O)cc3ccc(F)cc23)c(Cl)c1 [Example 2-8, [4-(2-chloro-4-methanesulfonyl-benzoyl)-6-fluoro-naphthalen-2-yl]-acetic acid]
44.8 nM	CS(=O)(=O)c1cccc(C(=O)c2cc(CC(=O)O)cc3ccc(F)cc23)c1 [Example 2-10, [6-Fluoro-4-(3-methanesulfonyl-benzoyl)-naphthalen-2-yl]-acetic acid]
3 nM	CCS(=O)(=O)c1ccc(C(=O)c2cc(CC(=O)O)cc3ccc(F)cc23)cc1 [Example 2-13, [4-(4-Ethanesulfonyl-benzoyl)-6-fluoro-naphthalen-2-yl]-acetic acid]
2.7 nM	CN(C)S(=O)(=O)c1ccc(C(=O)c2cc(CC(=O)O)cc3ccc(F)cc23)cc1 [Example 2-14, [4-(4-Dimethylsulfamoyl-benzoyl)-6-fluoro-naphthalen-2-yl]-acetic acid]
3.3 nM	CNS(=O)(=O)c1ccc(C(=O)c2cc(CC(=O)O)cc3ccc(F)cc23)cc1 [Example 2-15, [6-Fluoro-4-(4-methylsulfamoyl-benzoyl)-naphthalen-2-yl]-acetic acid]
3.3 nM	O=C(O)Cc1cc(C(=O)c2ccc(S(=O)(=O)N3CCOCC3)cc2)c2cc(F)ccc2c1 [Example 2-16, {6-Fluoro-4-[4-(morpholine-4-sulfonyl)-benzoyl]-naphthalen-2-yl}-acetic acid]
14.5 nM	CS(=O)(=O)c1ccc(C(=O)c2cc(CC(=O)O)cc3ccc(F)cc23)c(F)c1 [Example 2-17, [6-Fluoro-4-(2-fluoro-4-methanesulfonyl-benzoyl)-naphthalen-2-yl]-acetic acid]
4.2 nM	CS(=O)(=O)c1ccc(C(=O)c2cc(CC(=O)O)cc3ccc(F)cc23)cc1C(F)(F)F [Example 2-18, [6-Fluoro-4-(4-methanesulfonyl-3-trifluoromethyl-benzoyl)-naphthalen-2-yl]-acetic acid]
2.3 nM	CCc1cc(C(=O)c2cc(CC(=O)O)cc3ccc(F)cc23)ccc1S(C)(=O)=O [Example 2-19, [4-(3-Ethyl-4-methanesulfonyl-benzoyl)-6-fluoro-naphthalen-2-yl]-acetic acid]
17.9 nM	CCS(=O)(=O)c1ccc(C(=O)c2cc(CC(=O)O)cc3ccc(F)cc23)c(C)c1 [Example 2-20, [4-(4-Ethanesulfonyl-2-methyl-benzoyl)-6-fluoro-naphthalen-2-yl]-acetic acid]
3.8 nM	O=C(O)Cc1cc(C(=O)c2ccc(S(=O)(=O)N3CCCCC3)cc2)c2cc(F)ccc2c1 [Example 2-21, {6-Fluoro-4-[4-(piperidine-1-sulfonyl)-benzoyl]-naphthalen-2-yl}-acetic acid]
2.5 nM	CCN(CC)S(=O)(=O)c1ccc(C(=O)c2cc(CC(=O)O)cc3ccc(F)cc23)cc1 [Example 2-22, [4-(4-Diethylsulfamoyl-benzoyl)-6-fluoro-naphthalen-2-yl]-acetic acid]
3.7 nM	Cc1cc(S(=O)(=O)N2CCOCC2)ccc1C(=O)c1cc(CC(=O)O)cc2ccc(F)cc12 [Example 2-23, {6-Fluoro-4-[2-methyl-4-(morpholine-4-sulfonyl)-benzoyl]-naphthalen-2-yl}-acetic acid]
6.9 nM	Cc1cc(S(=O)(=O)N(C)C)ccc1C(=O)c1cc(CC(=O)O)cc2ccc(F)cc12 [Example 2-24, [4-(4-Dimethylsulfamoyl-2-methyl-benzoyl)-6-fluoro-naphthalen-2-yl]-acetic acid]
8.9 nM	CNS(=O)(=O)c1ccc(C(=O)c2cc(CC(=O)O)cc3ccc(F)cc23)c(C)c1 [Example 2-25, [6-Fluoro-4-(2-methyl-4-methylsulfamoyl-benzoyl)-naphthalen-2-yl]-acetic acid]
7 nM	O=C(O)Cc1cc(C(=O)c2ccc(S(=O)(=O)N3CCN(c4ccccc4F)CC3)cc2)c2cc(F)ccc2c1 [Example 2-26, (6-Fluoro-4-{4-[4-(2-fluoro-phenyl)-piperazine-1-sulfonyl]-benzoyl}-naphthalen-2-yl)-acetic acid]
6.4 nM	CS(=O)(=O)c1ccc(C(=O)c2cc(CC(=O)O)cc3ccc(Cl)cc23)cc1 [Example 2-27, [6-Chloro-4-(4-methanesulfonyl-benzoyl)-naphthalen-2-yl]-acetic acid]
21.3 nM	Cc1ccc2cc(CC(=O)O)cc(C(=O)c3ccc(S(C)(=O)=O)cc3)c2c1 [Example 2-28, [4-(4-Methanesulfonyl-benzoyl)-6-methyl-naphthalen-2-yl]-acetic acid]
103 nM	CS(=O)(=O)c1cc(C(=O)c2cc(CC(=O)O)cc3ccc(F)cc23)ccc1F [Example 2-31, [6-Fluoro-4-(4-fluoro-3-methanesulfonyl-benzoyl)-naphthalen-2-yl]-acetic acid]
272 nM	CS(=O)(=O)c1ccc(C(=O)c2cc(CC(=O)O)cc3cc(C(F)(F)F)ccc23)cc1 [Example 2-32, [4-(4-Methanesulfonyl-benzoyl)-7-trifluoromethyl-naphthalen-2-yl]-acetic acid]
8.3 nM	CCOC(=O)N1CCN(S(=O)(=O)c2ccc(C(=O)c3cc(CC(=O)O)cc4ccc(F)cc34)cc2)CC1 [Example 4-1, 4-[4-(3-Carboxymethyl-7-fluoro-naphthalene-1-carbonyl)-benzenesulfonyl]-piperazine-1-carboxylic acid ethyl ester]
